Where two headings read alike, the source gives them in different places.
Experiments:
[1] = test system: HeLa human cervical tumour cells; assay: Proliferation assay (crystal violet), HeLa; assay type: cell-based; settings: Method 3, read-out: Inhibition of HeLa cell proliferation, IC50
Procedure, shortened: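 4-day compound exposure ([…]; DMSO 0.5%) starting 24 h post-plating. Densities: NCI-H460 and HeLa 3000, HeLa-MaTu-ADR 5000, Caco-2 1500 cells/well; 10% FCS. Glutaraldehyde fix, crystal violet stain, A595.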

[2] = test system: B16F10 mouse melanoma cells; assay: Proliferation assay (crystal violet), B16F10; assay type: cell-based; settings: Method 3, read-out: Inhibition of B16F10 cell proliferation, IC50
Protocol: (§1) Cultivated tumour cells (NCI-H460, human non-small cell lung carcinoma cells, ATCC HTB-177; DU145, hormone-independent human prostate carcinoma cells, ATCC HTB-81; HeLa-MaTu, human cervical carcinoma cells, EPO-GmbH, Berlin; HeLa-MaTu-ADR, multidrug-resistant human cervical carcinoma cells, EPO-GmbH, Berlin; HeLa human cervical tumour cells, ATCC CCL-2; Caco-2 human colorectal carcinoma, ATCC HTB-37; B16F10 mouse melanoma cells, ATCC CRL-6475) were plated at a density of 5000 cells/well (DU145, HeLa-MaTu-ADR), 3000 cells/well (NCI-H460, HeLa-MaTu, HeLa), 1500 cells/well (Caco-2), or 1000 cells/well (B16 F10) in a 96-well multititer plate in 200 μL of their respective growth medium supplemented 10% fetal calf serum. After 24 hours, the cells of one plate (zero-point plate) were stained with crystal violet (see below), while the medium of the other plates was replaced by fresh culture medium (200 μL), to which the test substances were added in various concentrations (0 M, as well as in the range of […]; the final concentration of the solvent dimethylsulfoxide was 0.5%). The cells were incubated for 4 days in the presence of test substances. Cell proliferation was determined by staining the cells with crystal violet: the cells were fixed by adding 20 μL/measuring point of an 11% glutaric aldehyde solution for 15 minutes at room temperature. After three washing cycles of the fixed cells with water, the plates were dried at room temperature. The cells were stained by adding 100 μL/measuring point of a 0.1% crystal violet solution (pH 3.0). After three washing cycles of the stained cells with water, the plates were dried at room temperature. The dye was dissolved by adding 100 μL/measuring point of a 10% acetic acid solution. The absorbance was determined by photometry at a wavelength of 595 nm. The change of cell number, in percent, was calculated by normalization of the measured values to the absorbance values of the zero-point plate (=0%) and the absorbance of the untreated (0 M) cells (=100%). The IC50 values were determined by means of a 4 parameter fit.

CDK9/CycT1 = CDK9/CycT1 (Homo sapiens (Human), UniProt P50750); assay: CDK9/CycT1 kinase assay (TR-FRET); assay type: biochemical; settings: Method 1
Chain of CDK9/CycT1 (P50750 whole entry): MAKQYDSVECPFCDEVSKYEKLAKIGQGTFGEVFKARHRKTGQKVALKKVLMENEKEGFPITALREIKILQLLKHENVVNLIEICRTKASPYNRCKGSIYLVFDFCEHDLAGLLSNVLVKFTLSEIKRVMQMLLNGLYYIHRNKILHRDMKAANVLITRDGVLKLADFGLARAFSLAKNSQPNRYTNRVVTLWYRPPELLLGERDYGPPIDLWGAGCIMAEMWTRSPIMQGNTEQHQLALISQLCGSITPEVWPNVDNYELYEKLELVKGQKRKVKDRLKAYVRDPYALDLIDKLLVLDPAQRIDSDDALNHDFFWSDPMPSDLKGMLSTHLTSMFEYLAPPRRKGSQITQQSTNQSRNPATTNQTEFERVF
Chain of CDK9/CycT1 (O60563 whole entry partner): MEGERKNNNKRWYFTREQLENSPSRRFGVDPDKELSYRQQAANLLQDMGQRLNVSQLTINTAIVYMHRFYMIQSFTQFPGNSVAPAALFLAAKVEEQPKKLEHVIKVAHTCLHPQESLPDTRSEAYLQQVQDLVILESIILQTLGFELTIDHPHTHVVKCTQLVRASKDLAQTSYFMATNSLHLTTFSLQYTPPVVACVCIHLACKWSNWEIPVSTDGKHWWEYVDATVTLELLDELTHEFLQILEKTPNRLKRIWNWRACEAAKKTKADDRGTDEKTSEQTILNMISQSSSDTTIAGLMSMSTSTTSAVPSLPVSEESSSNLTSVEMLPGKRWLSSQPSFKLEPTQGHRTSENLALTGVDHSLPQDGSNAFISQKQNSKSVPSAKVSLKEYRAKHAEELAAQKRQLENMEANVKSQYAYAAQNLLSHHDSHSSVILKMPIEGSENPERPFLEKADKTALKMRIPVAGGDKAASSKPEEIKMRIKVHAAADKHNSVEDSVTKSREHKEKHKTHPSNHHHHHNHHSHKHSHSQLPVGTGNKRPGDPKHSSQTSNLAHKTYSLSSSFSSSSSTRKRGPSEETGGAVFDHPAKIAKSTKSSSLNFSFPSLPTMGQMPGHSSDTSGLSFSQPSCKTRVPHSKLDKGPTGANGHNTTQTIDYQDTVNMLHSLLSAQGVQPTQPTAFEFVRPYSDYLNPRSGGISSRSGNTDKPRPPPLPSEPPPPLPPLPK
Procedure, shortened: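 Recombinant full-length His-tagged human CDK9/CycT1, insect-cell expressed and Ni-NTA purified. Substrate is a biotinylated peptide (biotin-Ttds-linked). Kinase inhibition is read out by TR-FRET.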

[3] = test system: Caco-2 human colorectal carcinoma; assay: Proliferation assay (crystal violet), Caco-2; assay type: cell-based; settings: Method 3, read-out: Inhibition of Caco-2 cell proliferation, IC50
Protocol: as §1

[4] = test system: DU145, hormone-independent human prostate carcinoma cells; assay: Proliferation assay (crystal violet), DU145; assay type: cell-based; settings: Method 3, read-out: Inhibition of DU145 cell proliferation, IC50
Protocol: as §1

CDK2/CycE = CDK2/CycE (Homo sapiens (Human), UniProt P24941); assay: CDK2/CycE kinase assay (TR-FRET); assay type: biochemical; settings: Method 2
Procedure, shortened: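 Enzyme was GST-tagged human CDK2 with GST-tagged human CycE, expressed in Sf9 insect cells and glutathione-affinity purified. The kinase reaction used a biotinylated peptide substrate, with inhibition measured by TR-FRET.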

[5] = test system: HeLa-MaTu-ADR, multidrug-resistant human cervical carcinoma cells; assay: Proliferation assay (crystal violet), HeLa-MaTu-ADR; assay type: cell-based; settings: Method 3, read-out: Inhibition of HeLa/MaTu/ADR cell proliferation, IC50
Protocol: as §1

[6] = test system: NCI-H460, human non-small cell lung carcinoma cells; assay: Proliferation assay (crystal violet), NCI-H460; assay type: cell-based; settings: Method 3, read-out: Inhibition of NCI-H460 cell proliferation, IC50
Protocol: as §1

[7] = Mus musculus, B16-F10, B16F10 cells
[8] = Homo sapiens, Caco-2, Caco-2 cells
[9] = Homo sapiens, DU-145, DU145 cells
[10] = Homo sapiens, NCI-H460, NCI-H460 cells

Row | SMILES | IC50 ([1]; Homo sapiens, HeLa) [nM] | IC50 [2, 7] [nM] | IC50 (CDK9/CycT1) [nM] | IC50 [3, 8] [nM] | IC50 [4, 9] [nM] | IC50 (CDK2/CycE) [nM] | IC50 ([5]; Homo sapiens, HeLa) [nM] | IC50 [6, 10] [nM] | IC50 [1] [nM] | IC50 ([2]; B16F10 cells) [nM] | IC50 ([3]; Caco-2 cells) [nM] | IC50 ([4]; DU145 cells) [nM] | IC50 [5] [nM] | IC50 ([6]; NCI-H460 cells) [nM]
1 | CS(=N)(=O)Cc1cccc(Nc2ncnc(-c3ccc(F)cc3OCc3cc(F)cc(F)c3F)n2)c1 (racemic) [Example 101, (rac)-4-{4-Fluoro-2-[(2,3,5-trifluorobenzyl)oxy]phenyl}-N-{3-[(S-methylsulfonimidoyl)methyl]phenyl}-1,3,5-triazin-2-amine] | 330 | 340 | 4 | 240 | 340 | 500 | 350 | 360 | – | – | – | – | – | –
2 | C/C=C\COc1cc(F)ccc1-c1ncnc(Nc2cccc(CS(C)(=N)=O)c2)n1 (racemic) [Example 102, (rac)-4-{2-[(2Z)-But-2-en-1-yloxy]-4-fluorophenyl}-N-{3-[(S-methylsulfonimidoyl)methyl]phenyl}-1,3,5-triazin-2-amine] | 340 | 140 | 7 | 160 | 95 | 800 | 140 | 150 | – | – | – | – | – | –
3 | CS(=N)(=O)Cc1cccc(Nc2ncnc(-c3ccc(F)cc3OCc3cc(F)c(F)c(F)c3)n2)c1 (racemic) [Example 104, (rac)-4-{4-Fluoro-2-[(3,4,5-trifluorobenzyl)oxy]phenyl}-N-{3-[(S-methylsulfonimidoyl)methyl]phenyl}-1,3,5-triazin-2-amine] | 110 | 120 | 2 | 150 | 120 | 54 | 240 | 110 | – | – | – | – | – | –
4 | COc1cc(F)ccc1-c1ncnc(Nc2cc(F)c(F)c(CS(C)(=O)=NC#N)c2)n1 (racemic) [Example 105, (rac)-[(2,3-Difluoro-5-{[4-(4-fluoro-2-methoxyphenyl)-1,3,5-triazin-2-yl]amino}benzyl)(methyl)-oxido-λ^6-sulfanylidene]cyanamide] | 110 | 140 | 3 | 81 | 120 | 140 | 71 | 130 | – | – | – | – | – | –
5 | CCS(=O)(Cc1cccc(Nc2ncnc(-c3ccc(F)cc3OC)n2)c1)=NC#N (racemic) [Example 107, (rac)-[Ethyl(3-{[4-(4-fluoro-2-methoxyphenyl)-1,3,5-triazin-2-yl]amino}benzyl)oxido-λ^6-sulfanylidene]cyanamide] | 230 | 300 | 4 | 500 | 280 | 360 | 340 | 450 | – | – | – | – | – | –
6 | COc1cc(F)ccc1-c1ncnc(Nc2cc(C)cc(CS(C)(=O)=NC#N)c2)n1 (racemic) [Example 111, (rac)-[(3-{[4-(4-Fluoro-2-methoxyphenyl)-1,3,5-triazin-2-yl]amino}-5-methylbenzyl)(methyl)oxido-λ^6-sulfanylidene]cyanamide] | 100 | 130 | 3 | 220 | 110 | 250 | 170 | 270 | – | – | – | – | – | –
7 | C=C(CO)COc1cc(F)ccc1-c1ncnc(Nc2cccc(CS(C)(=N)=O)c2)n1 (racemic) [Example 112, (rac)-2-({5-Fluoro-2-[4-({3-[(S-methylsulfonimidoyl)methyl]phenyl}amino)-1,3,5-triazin-2-yl]phenoxy}methyl)prop-2-en-1-ol] | 330 | 320 | 4 | 350 | 300 | 730 | 390 | 320 | – | – | – | – | – | –
8 | CS(=N)(=O)Cc1cccc(Nc2ncnc(-c3ccc(F)cc3OCc3ccc(F)cc3)n2)c1 (single isomer, unassigned) [Example 56.a, 4-{4-Fluoro-2-[(4-fluorobenzyl)oxy]phenyl}-N-{3-[(S-methylsulfonimidoyl)methyl]phenyl}-1,3,5-triazin-2-amine] | 350 | 340 | 4 | 430 | 340 | 560 | 270 | 340 | – | – | – | – | – | –
9 | CS(=N)(=O)Cc1cccc(Nc2ncnc(-c3ccc(F)cc3OCc3ccc(F)cc3)n2)c1 (single isomer, unassigned) [Example 56.b, 4-{4-Fluoro-2-[(4-fluorobenzyl)oxy]phenyl}-N-{3-[(S-methylsulfonimidoyl)methyl]phenyl}-1,3,5-triazin-2-amine] | – | – | 5 | – | – | 560 | – | – | 540 | 390 | 540 | 400 | 540 | 470
10 | COc1cc(F)ccc1-c1ncnc(Nc2cc(F)cc(CS(C)(=O)=NC#N)c2)n1 (single isomer, unassigned) [Example 71, [(3-Fluoro-5-{[4-(4-fluoro-2-methoxyphenyl)-1,3,5-triazin-2-yl]amino}benzyl)(methyl)oxido-λ^6-sulfanylidene]cyanamide] | 100 | 110 | 6 | 130 | 120 | 230 | 120 | 160 | – | – | – | – | – | –
11 | COc1cc(F)ccc1-c1ncnc(Nc2cc(F)cc(CS(C)(=O)=NC#N)c2)n1 (single isomer, unassigned) [Example 72, [(3-Fluoro-5-{[4-(4-fluoro-2-methoxyphenyl)-1,3,5-triazin-2-yl]amino}benzyl)(methyl)oxido-λ^6-sulfanylidene]cyanamide] | – | – | 5 | – | – | 240 | – | – | 71 | 160 | 190 | 110 | 120 | 160
12 | CC#CCOc1cc(F)ccc1-c1ncnc(Nc2cccc(CS(C)(=N)=O)c2)n1 (single isomer, unassigned) [Example 74, 4-[2-(But-2-yn-1-yloxy)-4-fluorophenyl]-N-{3-[(S-methylsulfonimidoyl)methyl]phenyl}-1,3,5-triazin-2-amine] | 310 | 340 | 3 | 390 | – | 590 | 340 | 330 | – | – | – | 360 | – | –
13 | CC#CCOc1cc(F)ccc1-c1ncnc(Nc2cccc(CS(C)(=N)=O)c2)n1 (single isomer, unassigned) [Example 75, 4-[2-(But-2-yn-1-yloxy)-4-fluorophenyl]-N-{3-[(S-methylsulfonimidoyl)methyl]phenyl}-1,3,5-triazin-2-amine] | – | – | 4 | – | – | 450 | – | – | 260 | 240 | 310 | 170 | 210 | 220
